Read-outs that look alike come from different tables or passages of the source. One block for each molecule: values may come before it.
Legend:
[1] = tested on: monoclonal cGMP-specific antibody; experiment: Homogeneous competitive QRET cGMP detection with cGMP-specific antibody; type: binding; conditions: for recognition of the nucleotide by the antibody: nucleotide titration, data not shown
Protocol: All biochemical assays were performed in a 10 µL final volume using triplicate reactions and three individual experiments unless otherwise indicated. The non-enzymatic and real-time cGMP assays were performed in assay buffer 1 (20 mM HEPES, pH 7.5, 1 mM MgCl2, 0.005% γ-globulins, 0.01% Triton X-100), enzymatic end-point assays in assay buffer 2 (assay buffer 1 without 0.01% Triton X-100), and detection components ([…], antibody, and MT2) were added in the stop buffer (assay buffer 1 supplemented with 10 mM EDTA instead of 1 mM MgCl2). In all buffers, sGMP was equally detected. Buffers for end-point assay were optimized to avoid the used of Triton X-100 during the enzymatic sGC reaction, avoiding the progressive loss of heme, and by using the EDTA in stop buffer to chelate the enzyme essential MgCl2.
After initial assays, cGMP detection protocol was tested in cGMP titration with two antibody (2 ng/well and 4 ng/well) and two Eu(III)-cGMP (1 nM and 5 nM) concentrations. Titrated cGMP (0–250 µM) was added in 5 µL volume and detection solution containing Eu(III)-cGMP, cGMP antibody, and MT2 (1.2 µM or 2.2 µM) in 5 µL volume. Similar titrations were performed with other nucleotides (cAMP, GTP, ATP, ADP, and GMP). cGMP was also titrated in the presence of 0.5 mM GTP. In all of these assays, background controls were performed with six repeats and TRF-signals were monitored multiple times between 5 to 90 min to determine the TRF-signal stability.
Assays were performed with Eu(III)-cGMP concentration dependent individually fixed MT2 (1.2–3.2 µM) quencher concentration. TRF-signals were measured and the Eu(III)-cGMP equilibrium dissociation constant (Kd) for the cGMP-specific antibody was determined using linearized Cheng-Prusoff Equation[59].

[2] = tested on: PDEs in mouse brain homogenate; experiment: cGMP hydrolysis (PDE activity) in mouse brain homogenate; type: biochemical; conditions: 0.1 mg/ml homogenate, 50 µM cGMP, 15 min at 37 °C, 3 µM MT2; read-out: apparent IC50 of cGMP hydrolysis in mouse brain homogenate
Protocol: PDE inhibitors with varying specificity profile, BAY73-6691, sildenafil, and IBMX (0–500 µM), were assayed in a high-speed supernatants of mouse brain homogenates. Reactions were performed in 5 µL volume in the presence of 0.1 mg/ml of homogenate and 50 µM cGMP. After 15 min incubation at 37 °C, detection solution (0.4 µg/ml cGMP antibody, 5 nM Eu(III)-cGMP, and 3.0 µM MT2) was added and TRF-signals were recorded.

sGC [3] = molecular target: T1, sGC (Homo sapiens, UniProt Q02108+Q02153); experiment: sGC activity assay, endpoint QRET cGMP detection; type: biochemical; conditions: for EC50: 2 ng sGC, 0.5 mM GTP, 30 min at 37 °C, read-out: EC50 of concentration dependent sGC activation; for effect on sGC activity at fixed saturating concentration: 10 µM NS2028, 10 µM DEA-NO; for fold increase for cGMP compared to untreated sGC: 100 µM gemfibrozil or 10 µM DEA-NO
T1 construct: Full-length sGC was purified from Sf9 cells as described previously; made in house; host or cells: Sf9 cells
T1 sequence (Q02108 1-690): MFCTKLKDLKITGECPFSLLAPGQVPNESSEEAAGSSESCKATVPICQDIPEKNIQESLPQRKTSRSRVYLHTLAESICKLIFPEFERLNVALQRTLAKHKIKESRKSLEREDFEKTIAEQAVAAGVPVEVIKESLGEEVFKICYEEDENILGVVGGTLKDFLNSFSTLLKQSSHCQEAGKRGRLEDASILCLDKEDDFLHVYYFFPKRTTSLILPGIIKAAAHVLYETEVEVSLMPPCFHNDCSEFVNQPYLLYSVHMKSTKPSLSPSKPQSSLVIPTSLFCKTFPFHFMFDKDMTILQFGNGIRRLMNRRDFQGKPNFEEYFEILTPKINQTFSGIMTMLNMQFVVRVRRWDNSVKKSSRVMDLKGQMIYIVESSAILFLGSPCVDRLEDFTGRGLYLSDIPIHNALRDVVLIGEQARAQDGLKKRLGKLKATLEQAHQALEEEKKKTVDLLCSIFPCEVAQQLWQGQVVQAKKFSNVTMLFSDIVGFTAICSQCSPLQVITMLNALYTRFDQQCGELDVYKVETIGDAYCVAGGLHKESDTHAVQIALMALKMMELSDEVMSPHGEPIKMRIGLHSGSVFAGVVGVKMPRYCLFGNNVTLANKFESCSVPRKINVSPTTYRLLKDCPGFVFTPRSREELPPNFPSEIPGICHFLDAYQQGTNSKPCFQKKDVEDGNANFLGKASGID
T1 sequence (Q02153 1-619): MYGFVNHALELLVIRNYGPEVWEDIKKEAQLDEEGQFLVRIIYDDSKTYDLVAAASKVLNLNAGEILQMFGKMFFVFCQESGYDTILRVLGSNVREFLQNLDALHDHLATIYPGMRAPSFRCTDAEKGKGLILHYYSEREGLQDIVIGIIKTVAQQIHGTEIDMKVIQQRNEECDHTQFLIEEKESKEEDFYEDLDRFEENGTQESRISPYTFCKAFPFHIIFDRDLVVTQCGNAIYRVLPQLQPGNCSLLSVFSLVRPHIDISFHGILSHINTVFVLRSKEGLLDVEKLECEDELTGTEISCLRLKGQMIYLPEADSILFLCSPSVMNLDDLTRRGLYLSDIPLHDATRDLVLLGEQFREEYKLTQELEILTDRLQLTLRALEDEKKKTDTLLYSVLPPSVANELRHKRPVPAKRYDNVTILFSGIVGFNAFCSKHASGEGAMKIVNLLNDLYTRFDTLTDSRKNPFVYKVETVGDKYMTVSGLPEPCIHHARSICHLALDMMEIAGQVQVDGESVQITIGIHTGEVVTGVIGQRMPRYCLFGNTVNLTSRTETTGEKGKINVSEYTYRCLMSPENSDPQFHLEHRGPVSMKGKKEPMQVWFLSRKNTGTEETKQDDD
Protocol: Optimized cGMP detection platform was applied to all enzymatic assays. For non-stimulated conditions, purified sGC enzyme (0.04–276 ng/well) was incubated with or without 0.5 mM GTP in the assay buffer 2 for 10 to 45 min at 37 °C in 5 µL volume. The reaction was stopped by adding 5 µL of detection solution (0.4 µg/ml cGMP antibody, 5 nM Eu(III)-cGMP, and 2.2 µM MT2) containing EDTA. For NO stimulated sGC activity, the same reactions were performed in the presence of 10 or 100 µM DEA-NO added with GTP. DEA-NO was always prepared from a 100 mM stock solution in 10 mM NaOH, which was stored at − 80 °C. TRF-signals were always monitored multiple times between 5 to 90 min to determine the TRF-signal stability.
In assays where dose-dependent effect of three sGC activators, DEA-NO, YC-1, and riociguat, were tested, the compounds (0–100 µM) were incubated with 2 ng sGC. Reactions were initiated by adding 0.5 mM GTP to reach 5 µL volume and incubated for 30 min at 37 °C. Reactions were stopped by adding 5 µL of detection solution and TRF-signals were recorded. To evaluate the linearity of the cGMP production by sGC, 3 or 12 ng of sGC were used for resting conditions and 0.5 ng for 100 µM DEA-NO activated sGC. Assays were performed in separate plates and reactions were stopped at indicated time points (5–60 min), before TRF-signal monitoring as above.
For assays containing fixed concentration of sGC regulators, 5 ng of sGC was incubated with one, or the indicated combination of following molecules: 10 µM NS2028, 100 nM BAY58-2667, 100 µM gemfibrozil, 10 µM BAY41-2272, 100 µM Cbi, 10 µM DEA-NO or SNP with glutathione (100 µM each). 5 µL reactions containing 0.5 mM GTP were incubated for 10 min at 37 °C and stopped by adding the detection components. TRF-signals were recorded as described above.
Cell lysate interferences were evaluated in an endpoint assay with different amounts of sGC (0.008–166.7 ng) and 0.07 or 0.14 mg/ml of COS7 cell lysate. sGC/lysate mixture was supplemented with 0.5 mM GTP in the presence or absence of 10 µM DEA-NO, and 5 µL reaction was incubated for 10 min at 37 °C. Detection components were thereafter added and TRF-signals were monitored as above.
Reproducibility and HTS compatibility were determined by running Z’-factor assay using 24 sGC reactions with or without activity modulation in three consecutive days. Assays were performed with fixed sGC concentration (5 ng/well) and sGC activation was performed using gemfibrozil (100 µM) or DEA NONOate (10 µM). All assays were initiated by the addition of 0.5 mM GTP to obtain a final 5 µL reaction volume, 37 °C for 10 min. Detection solution was added and TRF-signals were monitored as previously. Z’-factors were calculated using sGC basal activity as negative and activated reactions (NO or gemfibrozil) as positive controls.
In parallel to all assays, changes in TRF-signal in response to different concentrations of exogenously added cGMP were recorded to generate a cGMP standard curve. The cGMP standard was created using 1:3 dilution series to maximize the linear part of the standard, which was used to calculate the amount of cGMP generated by sGC during the reaction. Only at the linear area, the TRF-signal relation to cGMP concentration can be determined.

sGC [4] = molecular target: T1, sGC; parameters: method as in PMID 26777256; conditions: cited from earlier work
PDE5A = tested on: PDE5A; parameters: method as in PMID 10574925; conditions: read-out: Km of PDE5A for cGMP; cited from earlier work

SMILES: Nc1ncnc2c1ncn2[C@@H]1O[C@H](COP(=O)(O)OP(=O)(O)O)[C@@H](O)[C@H]1O [ADP]
- recognition of the nucleotide by the antibody [1]: could not be recognized by the antibody

SMILES: Nc1ncnc2c1ncn2[C@@H]1O[C@H](COP(=O)(O)OP(=O)(O)OP(=O)(O)O)[C@@H](O)[C@H]1O [ATP]
- recognition of the nucleotide by the antibody [1]: could not be recognized by the antibody

- IC50 [2]: 81.3 ± 4.8 µM
SMILES: C[C@H](Cc1nc2c(cnn2-c2ccccc2Cl)c(=O)[nH]1)C(F)(F)F [BAY73-6691]

SMILES: CCN(CC)/[N+]([O-])=N/O.CCNCC [DEA-NO, diethylamine NONOate]
- EC50 (sGC [3]): 0.93 ± 0.1 µM
- effect on sGC activity at fixed saturating concentration (sGC [3]; 5 ng sGC, 10 min at 37 °C): largest increase in sGC activity
- NO-stimulated sGC specific activity in the presence of COS7 lysate (sGC [3]; 10 µM DEA-NO, 5 ng sGC/well, 10 min at 37 °C, 0.14 mg/ml COS7 lysate): 19.3 ± 4.2 µmol/mg/min
- NO-stimulated sGC specific activity (sGC [3]; 10 µM DEA-NO, 5 ng sGC/well, 10 min at 37 °C, buffer): 4.8 ± 1.0 µmol/min/mg
- fold increase for cGMP compared to untreated sGC (sGC [3]; 5 ng sGC/well, 10 min at 37 °C): ~50 fold

SMILES: Nc1nc2c(ncn2[C@@H]2O[C@H](COP(=O)(O)OP(=O)(O)OP(=O)(O)O)[C@@H](O)[C@H]2O)c(=O)[nH]1 [GTP, guanosine triphosphate]
- Km (sGC [4]; NO-activated sGC, read-out: Km for GTP, NO-activated sGC): < 75 µM
- Km (sGC [4]; resting sGC, read-out: Km for GTP, resting sGC): ~220 µM
- specificity of the antibody for cGMP over the nucleotide [1]: 1000 fold

- IC50 [2]: 9.9 ± 0.6 µM
SMILES: CC(C)Cn1c(=O)n(C)c(=O)c2[nH]cnc21 [IBMX, 3-isobutyl-1-methylxanthine]

- effect on sGC activity at fixed saturating concentration (sGC [3]; 5 ng sGC, 10 min at 37 °C): no significant effect
- effect on sGC activation when assayed together with BAY58-2667 or gemfibrozil (sGC [3]; 10 µM NS2028 with 100 nM BAY58-2667 or 100 µM gemfibrozil, 5 ng sGC, 10 min at 37 °C): increased the activation
SMILES: O=c1onc2n1-c1cc(Br)ccc1OC2 [NS2028, 8-bromo-4H-2,5-dioxa-3,9b-diaza-cyclopenta[a]naphthalen-1-one]

SMILES: OCc1ccc(-c2nn(Cc3ccccc3)c3ccccc23)o1 [YC-1, 3-(5′-hydroxymethyl-2′-furyl)-1-benzyl indazole]
- EC50 (sGC [3]): 5.7 ± 1 µM

SMILES: Nc1ncnc2c1ncn2[C@@H]1O[C@@H]2COP(=O)(O)O[C@H]2[C@H]1O [cAMP, cyclic adenosine monophosphate]
- recognition of the nucleotide by the antibody [1]: could not be recognized by the antibody

SMILES: Nc1nc2c(ncn2[C@@H]2O[C@@H]3COP(=O)(O)O[C@H]3[C@H]2O)c(=O)[nH]1 [cGMP, Cyclic 3´,5´-guanosine monophosphate]
- Km (PDE5A): ~2 µM
- EC50 ([1]; 1 nM Eu(III)-cGMP and 2 ng of antibody/well, read-out: EC50 value of cGMP titration (displacement of Eu(III)-cGMP from antibody)): 0.72 ± 0.07 µM
- EC50 ([1]; 5 nM Eu(III)-cGMP and 4 ng of antibody/well, read-out: EC50 of cGMP titration (displacement of Eu(III)-cGMP from antibody)): 1.8 ± 0.22 µM

- fold increase for cGMP compared to untreated sGC (sGC [3]; 5 ng sGC/well, 10 min at 37 °C): approximately 20 fold
SMILES: Cc1ccc(C)c(OCCCC(C)(C)C(=O)O)c1 [gemfibrozil]

- EC50 (sGC [3]): 0.26 ± 0.1 µM
SMILES: COC(=O)N(C)c1c(N)nc(-c2nn(Cc3ccccc3F)c3ncccc23)nc1N [riociguat]

- IC50 [2]: 45.2 ± 6.8 µM
SMILES: CCCc1nn(C)c2c(=O)[nH]c(-c3cc(S(=O)(=O)N4CCN(C)CC4)ccc3OCC)nc12 [sildenafil]
